Test results published in patent US4225595A, “Piperazine phosphates and phosphonate insecticides” (priority 1979, dated 1980).

Assays:
[1] = test system: Southern House Mosquito Larvae (Culex pipiens quinquefasciatus); test: Southern House Mosquito larvae (M) assay, mortality 48 hours after treatment; assay type: in vivo; conditions: third-instar larvae in aqueous solution, initial 1 ppm, read-out: LD50 M
Procedure: (§1) Screening was initiated at a maximal concentration level believed to be injurious to the insect population. The initial level should not be understood as representing a maximum at which a viable test for insecticidal activity can be conducted.
Tobacco budworms were tested in the same manner as the cabbage looper. Romaine lettuce (Latuca sativa) leaves provided the substrate. Southern House Mosquito Larvae (Culex pipiens quinquefasciatus), (M)
Ten third-instar larvae were placed in a six ounce wax paper cup containing 100 ml of an aqueous solution of the test compounds at a concentration of 1 ppm. The treated larvae were stored at 70° F. (21.5° C.) and mortality was recorded 48 hours after treatment. Two-Spotted Mite [Tetranychus urticae (Koch)], (2SM)
(§2) A less than 50% mortality rate at the initial concentration is indicated by a "greater than" sign (>). An approximately 50% mortality rate is indicated by the initial concentration rate. Other results are the dilutions at which an LD50 was achieved.

[2] = test system: Green Peach Aphid [Myzus persicae (Sulzer)]; test: Green Peach Aphid (GPA) plant spray assay; assay type: in vivo; conditions: spray on infested radish plants, three days
Source text: as §1
(§3) Nasturtium plants, Tropaeolum sp., approximately five centimeters (cm) high were transplanted into sandy loam soil in three-inch clay pots. Each pot was infested with 25-50 black bean aphids of mixed ages. Twenty-four hours later the pots were sprayed to the point of run-off with 50--50 acetone-water solutions of the test compounds.
(§4) Mortality rates were recorded after the infested plants had been held in the greenhouse for three days. Test concentrations ranged from 0.05% down to that at which 50% mortality occurs. Green Peach Aphid [Myzus persicae (Sulzer)], (GPA)
(§5) The insecticidal properties were tested in the same manner as for black beam aphids with the substitution of the nasturtiums by radish plants, Rhaphanus sativus. German Cockroach [Blatella germanica (Linne)], (GR)--Direct Spray
as §2

[3] = test system: Saltmarsh Caterpillar [Estigmene acrea (Drury)]; test: Saltmarsh Caterpillar (SMC) leaf dip assay; assay type: in vivo; conditions: curly dock leaves, second-instar larvae, 48 hours + 5 days
Procedure: as §1
(§6) The species was treated in the same manner as the German cockroach. The cages contained one string beam pod and 10 adult Lygus bugs. The percent mortality was recorded 48 hours later. Test concentrations ranged from 0.05% down to that at which approximately 50% mortality occurs. Saltmarsh Caterpillar [Estigmene acrea (Drury)], (SMC)--Leaf Dip Assay
(§7) Test compounds were diluted in a 50--50 acetone-water solution. Approximately 1×1.5 inch sections of curly dock (Rumex crispus) leaves were immersed in the test solution for 2-3 seconds. After drying on a wire screen, the leaves were placed in petri dishes containing a moistened piece of filter paper. Each dish was infested with 5 secondinstar saltmarsh larvae.
(§8) Mortality of the larvae was recorded 48 hours later. A piece of synthetic media was added to the dishes containing surviving larvae. The larvae were then observed for 5 additional days for delayed effects of the test compounds. Test concentrations ranged from 0.05% down to that at which approximately 50% mortality occurs. Cabbage Looper [Trichoplusia ni (Hubner)], (CL)
as §2

[4] = test system: Two-Spotted Mite [Tetranychus urticae (Koch)]; test: Two-Spotted Mite (2SM) plant dip assay, mortality seven days later; assay type: in vivo
Source text: (§9) Screening was initiated at a maximal concentration level believed to be injurious to the insect population. The initial level should not be understood as representing a maximum at which a viable test for insecticidal activity can be conducted. […]
Pinto bean plants (Phaseolus vulgaris) approximately 10 cm high were transplanted into sandy loam soil in three-inch clay pots. The plants were thoroughly infested with two-spotted mites of mixed ages and sexes. Twenty-four hours after infestation the plants were inverted and dipped for 2-3 seconds in 50--50 acetone-water solutions of the test compounds.
Mortality ratings for both adult mites and nymphs hatching after treatment were taken seven days later. Test concentrations ranged from 0.05% down to that at which 50% mortality occurs.
as §2

[5] = test system: Black Bean Aphid [Aphis fabae (Scop.)]; test: Black Bean Aphid (BBA) plant spray assay, mortality after three days; assay type: in vivo; conditions: spray on infested nasturtium plants
Source text: as §9, §3, §4, §2

[6] = test system: Tobacco Budworm [Heliothis virescens (Fabricius)]; conditions: leaf dip, Romaine lettuce leaves
Procedure: Mortality of the larvae was recorded 48 hours later. A piece of synthetic media was added to the dishes containing surviving larvae. […] Test concentrations ranged from 0.05% down to that at which approximately 50% mortality occurs.

[7] = test system: Housefly [Musca domestica (Linn.)]; conditions: topical, 48 h
Procedure: Housefly [Musca domestica (Linn.)], (HF)--Contact Residue Assay
Test compounds were diluted in acetone and aliquots were pipetted onto the bottom of 55×15 millimeter (mm) aluminum dishes. One ml of acetone containing 0.02% peanut oil was added to each dish to insure even spreading. After all solvents had evaporated the dishes were placed in cages each containing 25 one to two day old female houseflies. Each cage contained a sugar-water cotton plug for sustanence of the flies.
Mortality rates were recorded after 48 hours. Test levels ranged from 10 μ/25 .female. houseflies down to that at which approximately 50% mortality occurs.

[8] = test system: Cabbage Looper [Trichoplusia ni (Hubner)]; test: Cabbage Looper (CL) leaf dip assay; assay type: in vivo; conditions: squash cotyledons, initial 0.1%
Procedure: as §1, §7, §8
The effectiveness of the compounds was tested in the same manner as for the saltmarsh caterpillar with two exceptions. Cotyledons of hyzini squash (Calabacita abobrinha, were substituted for curly dock leaves and the initial test concentration was 0.1%. Tobacco Budworm [Heliothis virescens (Fabricius)], (TBW)
as §2

[9] = test system: Lygus Bug [Lygus hesperus (Knight)]; test: Lygus Bug (LB) direct spray assay, mortality 48 hours later; assay type: in vivo; conditions: adults, initial 0.05%
Procedure: as §1
(§10) Mobile insects, such as houseflies, German cockroaches, Lygus bugs, were contained for treatment in circular cardboard cages covered with cellophane on the bottom and tulle netting on the top.
(§11) Test compounds were diluted in a 50--50 acetonewater solution. Two cubic centimeters (cc) of the compound solutions were sprayed through a DeVilbiss type EGA hand spray gun into cages each containing 10 one-month-old German cockroach nymphs.
Lygus Bug [Lygus hesperus (Knight)], (LB)--Direct Spray Assay
as §6, §2

[10] = test system: German Cockroach [Blatella germanica (Linne)]; test: German Cockroach (GR) direct spray, mortality 7 days later; assay type: in vivo; conditions: one-month-old nymphs, initial 0.1%
Procedure: as §1, §10, §5, §11
The percent mortality was recorded 7 days later. Test concentrations ranged from 0.1% down to that at which approximately 50% mortality occurs.
as §2

CCOP(=O)(OCC)SCC(=O)N1CCN(C(=O)SC)CC1 [Compound 28, 1-N-methylthiocarbo-4-N-O,O-diethylphosphoromonothioylacetyl piperazine]
LC50 [1]: > 1 µg/mL | LD50 GPA [2]: .008% | LD50 SMC [3]: > .05% | LD50 2SM Adults ([4]; adult mites): < .05% | LD50 2SM Eggs ([4]; eggs (nymphs hatching after treatment)): < .05% | LD50 BBA [5]: .0002% | LD50 TBW [6]: > .1% | LD50 HF [7]: > 10 μg/25 | LD50 CL [8]: > .1% | LD50 LB [9]: > .05% | LD50 GR [10]: > .1%
